According to the OligoGym collection:
Several values for one entry are separate records, joined by “and”; a condition that tells them apart may be missing. Identical values can stand only once. After the bases stand the sugars from the 5' end (letter, count) and the backbone: PS all phosphorothioate, else s phosphorothioate and o phosphodiester by linkage. Methylation of C is not given here. e = 2'-O-(2-methoxyethyl) (MOE); k = constrained ethyl (cEt); d = 2'-deoxy (DNA)

Tests used:
MALAT1 = conditions: ASO, A431, 0.005 µM
IRF4 = conditions: ASO

| Sequence | target mRNA inhibition (IRF4; MM.1R, 1 µM) | target mRNA inhibition (IRF4; SK-MEL-28, 4 µM) | also measured |
| --- | --- | --- | --- |
| AAACCTGGGCTCCCGG (sugars k3 d10 k3, PS) |  |  | target mRNA inhibition (MALAT1): 20% |
| ATTACCCCAACTAAAC (sugars k3 d10 k3, PS) |  |  | target mRNA inhibition (MALAT1): 9% |
| CTTCTAAGTTTGTACA (sugars k3 d10 k3, PS) |  |  | target mRNA inhibition (MALAT1): 47% |
| CTAAGATGCTAGCTTG (sugars k3 d10 k3, PS) |  |  | target mRNA inhibition (MALAT1): -26% |
| TCTATAGTGTTCCAGG (sugars kkdddddddddkdkdk, PS) | 50% |  | target mRNA inhibition (IRF4; MM.1R, 0.074 µM): 22%; target mRNA inhibition (IRF4; MM.1R, 0.222 µM): 28%; target mRNA inhibition (IRF4; MM.1R, 0.666 µM): 45%; target mRNA inhibition (IRF4; MM.1R, 2 µM): 72% |
| CATTCGAGGTGATTCT (sugars k3 d10 k3, PS) | 11% |  |  |
| ACCTCAGTTTGTGAAG (sugars e1 k2 d9 k2 e2, PS) | 2% |  |  |
| TGCTTATCAATGCCAA (sugars k3 d10 k3, PS) | 35% and 31% | 70% | target mRNA inhibition (IRF4; MM.1R, 0.074 µM): 12%; target mRNA inhibition (IRF4; MM.1R, 0.222 µM): 12%; target mRNA inhibition (IRF4; MM.1R, 0.666 µM): 16%; target mRNA inhibition (IRF4; MM.1R, 2 µM): 50%; target mRNA inhibition (IRF4; MM.1R, 4 µM): 69% and 66% |
| CCGCAATTCTCCTCAA (sugars k3 d10 k3, PS) |  | 20% |  |
| TGGTTGGCTGGTCTTT (sugars kkdddddddddkdkdk, PS) | 51% |  |  |
| AGATAACGAGGTGCCT (sugars k3 d10 k3, PS) |  | 23% |  |
| CAAAAGTACCACAGGG (sugars k3 d10 k3, PS) |  | 40% |  |
| GGCCTTAATGGTGATT (sugars k3 d10 k3, PS) | -16% |  |  |
| TCCTCAACCGCTGAAC (sugars k3 d10 k3, PS) |  | 37% |  |
| ACTTGTGACCCACATA (sugars k3 d10 k3, PS) | -4% |  |  |
| GCGGATAGATCTGTGG (sugars k3 d10 k3, PS) |  | 55% |  |
| GTTTATTTCCTACTCT (sugars k4 d8 k4, PS) |  | 44% |  |
| CTGTAGGATTTTACAT (sugars k3 d10 k3, PS) |  | 24% |  |
| AGGCAGGGACCGCGCC (sugars k3 d10 k3, PS) | -11% |  |  |
| CCTGAGTATTTCATAG (sugars k3 d10 k3, PS) |  | 42% |  |
| CCACTATTCGAGAGAA (sugars k3 d10 k3, PS) |  | 57% |  |
| GAGGACTTCGGGAGAT (sugars k3 d10 k3, PS) |  | 23% |  |
| GCAGTGATGTCAGGTT (sugars kkddddddddddkeke, PS) | 67% |  | target mRNA inhibition (IRF4; MM.1R, 0.074 µM): 25%; target mRNA inhibition (IRF4; MM.1R, 0.222 µM): 45%; target mRNA inhibition (IRF4; MM.1R, 0.666 µM): 63%; target mRNA inhibition (IRF4; MM.1R, 2 µM): 85% |

| Sequence | target mRNA inhibition (IRF4; MM.1R, 1 µM) | target mRNA inhibition (IRF4; SK-MEL-28, 4 µM) | also measured |
| --- | --- | --- | --- |
| TCCAGGTGGCTCAGCA (sugars k3 d10 k3, PS) |  | 41% |  |
| GTGATGTCAGGTTTTC (sugars k2 d9 e3 k2, PS) | 38% |  |  |
| CCATTGGAGGAGGGTT (sugars k3 d10 k3, PS) |  | 32% |  |
| GGACCTGGTCCAGGTT (sugars k3 d10 k3, PS) |  | -2% |  |
| AGCTAACTTACAGGAC (sugars k3 d10 k3, PS) |  | -4% |  |
| ATTCTTGAATAGAGGA (sugars k3 d10 k3, PS) | 16% |  |  |
| CACTATTAAACAGCAC (sugars k3 d10 k3, PS) |  | 19% |  |
| ATACTGTAAGGGCTGC (sugars k3 d10 k3, PS) |  | 54% |  |
| AGCTTGATAAAGGCTG (sugars kddddddddddkekek, PS) | 1% |  |  |
| TTCTTATGCATGTTCC (sugars k3 d10 k3, PS) |  | 65% and 80% |  |
| TCAACCAGTTCCTCAA (sugars k3 d10 k3, PS) | -23% |  |  |
| CACGCAATGGCAAAAG (sugars k3 d10 k3, PS) |  | 19% |  |
| AGCAAAGAGGGTCACA (sugars k3 d10 k3, PS) |  | 68% |  |
| GCCCAAAGGCTCCCGA (sugars k3 d10 k3, PS) |  | 11% |  |
| ACCAGAATTGCAAGAG (sugars k3 d10 k3, PS) |  | 60% |  |
| GTCTACTGCTGTACTT (sugars k3 d10 k3, PS) |  | 52% |  |
| AAATAGCATCAGAGCT (sugars k3 d10 k3, PS) |  | 13% |  |
| AAAAAGGTGCAAGCCT (sugars k3 d10 k3, PS) | 6% |  |  |
| CATGGCAGTGGAGCTC (sugars k3 d10 k3, PS) |  | 87% and 82% |  |
| GGGATTATATACTGGT (sugars kkddddddddddkeke, PS) | 46% |  |  |
| GTCTTAGGTGTTCAAG (sugars k3 d10 k3, PS) |  | 56% |  |
| AGGAGATATTAATTAC (sugars k3 d10 k3, PS) |  | 57% |  |
| GTGACCCACATAACTC (sugars k3 d10 k3, PS) | 7% |  |  |
